In patent US10888576B2, “Composition of HMB and ATP and methods of use” (Metabolic Technologies, Inc., priority 2018, dated 2021):

How the values were obtained:
Type in all cases: in vivo, human
resistance-trained males [1] = assay: Body composition (weight, lean body mass, fat) by dual x-ray absorptiometry, 12-week resistance training study
creatine kinase (CK) = assay: Serum creatine kinase (muscle damage), colorimetric; conditions: for effect on training-induced increase in CK: compared with placebo, initiation of training and overreaching cycle; for CK: Mean ± SEM
Method: (§1) Prior to the study, participants were randomly assigned to receive either 3 g per day of HMB Free Acid (HMB) (combined with food-grade orange flavors and sweeteners), 400 mg per day of ATP (PEAK ATP®; TSI, Inc.), a combination of both 3 g of HMB and 400 mg per day of ATP, or a placebo (food-grade orange flavors and sweeteners) divided equally into three servings daily with the first serving given 30 minutes prior to exercise and the remaining two servings daily with the mid-day and evening meals. On the non-training days participants were instructed to consume one serving with each of three separate meals. The supplementation was continued daily throughout the training and testing protocols. Each serving was formulated with 1 gram of HMB free acid to account for fill and emptying variation and achieve a minimum effective dosage of 0.800 grams. This dosage would be equivalent to a 1 gram Ca-HMB dosage.
(§2) All blood draws throughout the study were obtained via venipuncture after a 12-hour fast by a trained phlebotomist. Whole blood was collected and transferred into appropriate tubes for obtaining serum and plasma and centrifuged at 1,500 g for 15 min at 4° C. Resulting serum and plasma were then aliquoted and stored at −80° C. until subsequent analyses.
(§3) Samples were thawed one time and analyzed in duplicate for each analyte. All blood draws were scheduled at the same time of day to negate confounding influences of diurnal hormonal variations. Serum total and free testosterone, cortisol, and C-reactive protein (CRP) were assayed via ELISA kits obtained from Diagnostic Systems Laboratories (Webster, Tex.). All hormones were measured in the same assay on the same day to avoid compounded interassay variance. […] Serum creatine kinase (CK) was measured using colorimetric procedures at 340 nm (Diagnostics Chemicals, Oxford, Conn.). Twenty-four hour urine collections were made and 3-methylhistine was determined by previously described methods (Rathmacher et al 1992 and Wilson et al, 2013).

urinary 3-MH:Cr ratio = assay: 24 h urinary 3-methylhistidine:creatinine ratio (muscle protein degradation); conditions: Mean ± SEM
Method: as §1, §3
The rate of muscle protein degradation was evaluated by measuring urinary 3-MH:Cr ratio (Table 6).

free testosterone = assay: Serum free testosterone ELISA; conditions: for effect on free testosterone: main effect; for Free Testosterone: Mean ± SEM
Method: as §1, §2, §3

total testosterone = assay: Serum total testosterone ELISA; conditions: for effect on total testosterone: main effect; for Total Testosterone: Mean ± SEM
Method: as §1, §2, §3

resistance-trained males [2] = assay: Vertical jump peak power on force platform; conditions: for vertical jump power increase: over the 12-weeks of training; for decrease in vertical jump power during the overreaching cycle: over weeks 9 and 10
Method: Measurements of PP were also taken during a vertical jump (VJ) test performed on a multi-component AMTI force platform (Advanced Mechanical Technology, Inc., Watertown, Mass.), interfaced with a personal computer at a sampling rate of 1000 Hz (51). Data acquisition software (LabVIEW, version 7.1; National Instruments Corporation, Austin, Tex.) was used to calculate PP. Peak power was calculated as the peak combination of ground reaction force and peak velocity during the accelerated launch on the platform. The ICC of VJ power was 0.97. Prior to the study, participants were randomly assigned to receive either 3 g per day of HMB Free Acid (HMB) (combined with food-grade orange flavors and sweeteners), 400 mg per day of ATP (PEAK ATP®; TSI, Inc.), a combination of both 3 g of HMB and 400 mg per day of ATP, or a placebo (food-grade orange flavors and sweeteners) divided equally into three servings daily with the first serving given 30 minutes prior to exercise and the remaining two servings daily with the mid-day and evening meals. On the non-training days participants were instructed to consume one serving with each of three separate meals. The supplementation was continued daily throughout the training and testing protocols. […] This dosage would be equivalent to a 1 gram Ca-HMB dosage. All participants performed a high volume resistance training protocol during the 12-week study. The phases of the study and measurements taken are shown in FIG. 1, and the exercise protocols for each phase of the study are shown in Tables 1 to 3. The training was divided into 3 phases, with Phase 1 consisting of daily undulating periodization (weeks 1 to 8), Phase 2 consisting of the overreaching cycle (weeks 9 and 10), and Phase 3 consisting of the taper cycle (weeks 11 and 12).

Q: With `Nc1ncnc2c1ncn2[C@@H]1O[C@H](COP(=O)(O)OP(=O)(O)OP(=O)(O)O)[C@@H](O)[C@H]1O` [ATP, Adenosine-5′-triphosphate] as the compound, how does the “Lean body mass increase” value (resistance-trained males [1]; 12-week study) read?
A: 4.0 ± 0.4 kg

Q: And the “DXA Fat” value (resistance-trained males [1]; week 0 (baseline))?
A: 19.5 ± 1.8%

Q: What about the “DXA LBM” value (resistance-trained males [1]; week 0 (baseline)) of the same compound?
A: 67.7 ± 2.0 kg

Q: What about the Weight (resistance-trained males [1]; week 0 (baseline)) of the same compound?
A: 85.7 ± 1.7 kg

Q: And the “DXA Fat” value (resistance-trained males [1]; week 4)?
A: 18.1 ± 1.8%

Q: And the “DXA LBM” value (resistance-trained males [1]; week 4)?
A: 70.1 ± 1.9 kg

Q: What about the Weight (resistance-trained males [1]; week 4) of the same compound?
A: 86.9 ± 2.0 kg

Q: And the “DXA Fat” value (resistance-trained males [1]; week 8)?
A: 16.6 ± 1.6%

Q: What about the “DXA LBM” value (resistance-trained males [1]; week 8) of the same compound?
A: 71.4 ± 2.0 kg

Q: What about the Weight (resistance-trained males [1]; week 8) of the same compound?
A: 87.0 ± 2.0 kg

Q: And the “DXA Fat” value (resistance-trained males [1]; week 12)?
A: 16.0 ± 1.5%

Q: And the “DXA LBM” value (resistance-trained males [1]; week 12)?
A: 71.7 ± 1.9 kg

Q: And the Weight (resistance-trained males [1]; week 12)?
A: 87.0 ± 2.1 kg

Q: And the “effect on training-induced increase in CK” value (creatine kinase (CK))?
A: did not attenuate the increases in CK

Q: And the CK (creatine kinase (CK); week 0 (baseline))?
A: 145 ± 8 IU/L

Q: And the CK (creatine kinase (CK); week 1)?
A: 500 ± 71 IU/L

Q: And the CK (creatine kinase (CK); week 4)?
A: 324 ± 14 IU/L

Q: What about the CK (creatine kinase (CK); week 8) of the same compound?
A: 234 ± 32 IU/L

Q: What about the CK (creatine kinase (CK); week 9 (overreaching)) of the same compound?
A: 426 ± 44 IU/L

Q: What about the CK (creatine kinase (CK); week 10 (overreaching)) of the same compound?
A: 449 ± 62 IU/L

Q: What about the CK (creatine kinase (CK); week 12) of the same compound?
A: 160 ± 20 IU/L

Q: What about the “24 h 3MH:Cr” value (urinary 3-MH:Cr ratio; week 0 (baseline)) of the same compound?
A: 0.136 ± 0.008 μmol:mg

Q: And the “24 h 3MH:Cr” value (urinary 3-MH:Cr ratio; week 1)?
A: 0.127 ± 0.007 μmol:mg

Q: And the “24 h 3MH:Cr” value (urinary 3-MH:Cr ratio; week 8)?
A: 0.143 ± 0.007 μmol:mg

Q: What about the “24 h 3MH:Cr” value (urinary 3-MH:Cr ratio; week 9 (overreaching)) of the same compound?
A: 0.143 ± 0.008 μmol:mg

Q: What about the “24 h 3MH:Cr” value (urinary 3-MH:Cr ratio; week 10 (overreaching)) of the same compound?
A: 0.131 ± 0.012 μmol:mg

Q: And the “effect on free testosterone” value (free testosterone)?
A: no main effect differences

Q: What about the “Free Testosterone” value (free testosterone; week 0 (baseline)) of the same compound?
A: 112 ± 13 ng/dL

Q: And the “Free Testosterone” value (free testosterone; week 1)?
A: 114 ± 9 ng/dL

Q: And the “Free Testosterone” value (free testosterone; week 4)?
A: 118 ± 6 ng/dL

Q: What about the “Free Testosterone” value (free testosterone; week 8) of the same compound?
A: 117 ± 11 ng/dL

Q: What about the “Free Testosterone” value (free testosterone; week 9 (overreaching)) of the same compound?
A: 108 ± 7 ng/dL

Q: And the “Free Testosterone” value (free testosterone; week 10 (overreaching))?
A: 110 ± 10 ng/dL

Q: What about the “Free Testosterone” value (free testosterone; week 12) of the same compound?
A: 125 ± 13 ng/dL

Q: What about the “effect on total testosterone” value (total testosterone) of the same compound?
A: no main effect differences

Q: And the “Total Testosterone” value (total testosterone; week 0 (baseline))?
A: 660 ± 67 ng/dL

Q: And the “Total Testosterone” value (total testosterone; week 1)?
A: 645 ± 54 ng/dL

Q: What about the “Total Testosterone” value (total testosterone; week 4) of the same compound?
A: 695 ± 60 ng/dL

Q: And the “Total Testosterone” value (total testosterone; week 8)?
A: 645 ± 60 ng/dL

Q: And the “Total Testosterone” value (total testosterone; week 9 (overreaching))?
A: 621 ± 49 ng/dL

Q: And the “Total Testosterone” value (total testosterone; week 10 (overreaching))?
A: 592 ± 84 ng/dL

Q: And the “Total Testosterone” value (total testosterone; week 12)?
A: 673 ± 69 ng/dL

Q: What about the “vertical jump power increase” value (resistance-trained males [2]) of the same compound?
A: 796±75 watts

Q: What about the “decrease in vertical jump power during the overreaching cycle” value (resistance-trained males [2]) of the same compound?
A: 2.2±0.4%

Q: Which “Lean body mass increase” value (resistance-trained males [1]; 12-week study) does the source give for `CC(C)(O)CC(=O)O` [HMB-FA, β-hydroxy-β-methylbutyric acid] here?
A: 7.4 ± 0.4 kg

Q: And the fat percentage decrease (resistance-trained males [1]; 12-week study)?
A: 7.0±0.6%

Q: What about the “DXA Fat” value (resistance-trained males [1]; week 0 (baseline)) of the same compound?
A: 20.4 ± 1.4%

Q: And the “DXA LBM” value (resistance-trained males [1]; week 0 (baseline))?
A: 66.2 ± 2.6 kg

Q: What about the Weight (resistance-trained males [1]; week 0 (baseline)) of the same compound?
A: 83.1 ± 2.8 kg

Q: What about the “DXA Fat” value (resistance-trained males [1]; week 4) of the same compound?
A: 17.6 ± 1.4%

Q: What about the “DXA LBM” value (resistance-trained males [1]; week 4) of the same compound?
A: 69.2 ± 2.7 kg

Q: What about the Weight (resistance-trained males [1]; week 4) of the same compound?
A: 83.9 ± 2.8 kg

Q: And the “DXA Fat” value (resistance-trained males [1]; week 8)?
A: 15.9 ± 1.5 %

Q: And the “DXA LBM” value (resistance-trained males [1]; week 8)?
A: 71.3 ± 2.7 kg

Q: And the Weight (resistance-trained males [1]; week 8)?
A: 84.8 ± 2.9 kg

Q: And the “DXA Fat” value (resistance-trained males [1]; week 12)?
A: 13.5 ± 1.5 %

Q: What about the “DXA LBM” value (resistance-trained males [1]; week 12) of the same compound?
A: 73.5 ± 2.7 kg

Q: And the Weight (resistance-trained males [1]; week 12)?
A: 85.0 ± 3.0 kg

Q: And the “effect on training-induced increase in CK” value (creatine kinase (CK))?
A: significantly attenuated the increase in CK

Q: And the CK (creatine kinase (CK); week 0 (baseline))?
A: 158 ± 16 IU/L

Q: What about the CK (creatine kinase (CK); week 1) of the same compound?
A: 322 ± 35 IU/L

Q: And the CK (creatine kinase (CK); week 4)?
A: 280 ± 22 IU/L

Q: What about the CK (creatine kinase (CK); week 8) of the same compound?
A: 255 ± 28 IU/L

Q: And the CK (creatine kinase (CK); week 9 (overreaching))?
A: 288 ± 18 IU/L

Q: What about the CK (creatine kinase (CK); week 10 (overreaching)) of the same compound?
A: 250 ± 14 IU/L

Q: And the CK (creatine kinase (CK); week 12)?
A: 147 ± 15 IU/L

Q: What about the “24 h 3MH:Cr” value (urinary 3-MH:Cr ratio; week 0 (baseline)) of the same compound?
A: 0.127 ± 0.004 μmol:mg

Q: And the “24 h 3MH:Cr” value (urinary 3-MH:Cr ratio; week 1)?
A: 0.122 ± 0.002 μmol:mg

Q: What about the “24 h 3MH:Cr” value (urinary 3-MH:Cr ratio; week 8) of the same compound?
A: 0.124 ± 0.008 μmol:mg

Q: And the “24 h 3MH:Cr” value (urinary 3-MH:Cr ratio; week 9 (overreaching))?
A: 0.120 ± 0.003 μmol:mg

Q: And the “24 h 3MH:Cr” value (urinary 3-MH:Cr ratio; week 10 (overreaching))?
A: 0.141 ± 0.004 μmol:mg

Q: What about the “effect on free testosterone” value (free testosterone) of the same compound?
A: no main effect differences

Q: What about the “Free Testosterone” value (free testosterone; week 0 (baseline)) of the same compound?
A: 109 ± 10 ng/dL

Q: And the “Free Testosterone” value (free testosterone; week 1)?
A: 104 ± 8 ng/dL

Q: And the “Free Testosterone” value (free testosterone; week 4)?
A: 116 ± 11 ng/dL

Q: What about the “Free Testosterone” value (free testosterone; week 8) of the same compound?
A: 115 ± 9 ng/dL

Q: And the “Free Testosterone” value (free testosterone; week 9 (overreaching))?
A: 118 ± 8 ng/dL

Q: What about the “Free Testosterone” value (free testosterone; week 10 (overreaching)) of the same compound?
A: 116 ± 8 ng/dL

Q: What about the “Free Testosterone” value (free testosterone; week 12) of the same compound?
A: 127 ± 8 ng/dL

Q: And the “effect on total testosterone” value (total testosterone)?
A: no main effect differences

Q: And the “Total Testosterone” value (total testosterone; week 0 (baseline))?
A: 708 ± 35 ng/dL

Q: And the “Total Testosterone” value (total testosterone; week 1)?
A: 708 ± 48 ng/dL

Q: And the “Total Testosterone” value (total testosterone; week 4)?
A: 730 ± 63 ng/dL

Q: And the “Total Testosterone” value (total testosterone; week 8)?
A: 652 ± 35 ng/dL

Q: And the “Total Testosterone” value (total testosterone; week 9 (overreaching))?
A: 752 ± 61 ng/dL

Q: And the “Total Testosterone” value (total testosterone; week 10 (overreaching))?
A: 701 ± 34 ng/dL

Q: And the “Total Testosterone” value (total testosterone; week 12)?
A: 728 ± 39 ng/dL

Q: What about the “vertical jump power increase” value (resistance-trained males [2]) of the same compound?
A: 991±51 watts

Q: And the “decrease in vertical jump power during the overreaching cycle” value (resistance-trained males [2])?
A: 1.4±0.4%
